Data on 5 molecules can be found in publication PMC7154053, “Chemical, Metabolic, and Cellular Characterization of a FtsZ Inhibitor Effective Against Burkholderia cenocepacia” (Frontiers in Microbiology, 2020).

By IC50 is commonly meant the concentration needed to halve the response being measured. In general, melting point refers to the temperature of the solid-liquid transition. Usually Km stands for the substrate concentration at which the rate is half of its maximum. For orientation: Vmax means the top rate of the reaction or transport when substrate is in excess. As usually defined, the kcat is the maximal rate divided by the concentration of active sites. One may read the kcat/Km as the turnover number divided by the Michaelis constant.

In brackets after ≈: the same amount, converted by molar mass. Where two headings read alike, the source gives them in different places.

One data set concerns P. aeruginosa PAO1. The experiment in a line: MIC, 2-fold microdilution, resazurin method. The class given is cell-based. To be noted: Pseudomonas aeruginosa. The protocol: (§1) Burkholderia cenocepacia strains, Escherichia coli ATCC 25922, Pseudomonas aeruginosa PAO1, and Staphylococcus aureus ATCC 25923 were grown in Luria-Bertani (LB) medium (Difco), if not differently specified, with shaking at 200 rpm, or on LB agar, at 37°C.
(§2) The microtiter plates were incubated at 37°C for 48 (for B. cenocepacia) or 24 h (for all the other strains) and growth was determined by the resazurin method (Martin et al., [2006]). A solution of resazurin sodium salt (Sigma Aldrich) was prepared at 0.01% in distilled water and filter-sterilized. Thirty microliter of resazurin solution were added to each well after 1 or 2 days of incubation at 37°C, and the microtiters were re-incubated at the same temperature for 4 h. The MIC was defined as the lowest concentration of the drug that prevented a change in color from blue to pink, which indicates bacterial growth.
(§3) Three independent biological replicates were used for each MIC determination.
(In general: Dilution methods test growth across graded concentrations, often in twofold steps.)

The subject of another data set is E. coli ATCC 25922. The data set is described as follows: MIC, 2-fold microdilution, resazurin method. In kind it is cell-based. The following applies: Escherichia coli. The protocol: as §1, §2, §3
Another data set relates to B. cenocepacia J2315. The data set is described as follows: MIC, 2-fold microdilution, resazurin method. The following applies: Burkholderia cenocepacia. In kind it is cell-based, Burkholderia cenocepacia. The protocol: as §1, §2, §3
In data set [1] the target is Burkholderia cenocepacia purified FtsZ protein (Burkholderia cenocepacia, UniProt B4E5Y7). The data set is described as follows: biochemical. The class given is biochemical. The following applies: for Inhibition of Bc FtsZ At 100 μM: 100 μM compound; for Inhibition of Bc FtsZ At 100 μM / Inhibits B. cenocepacia FtsZ GTPase at 100µM?: Yes/No; for Inhibits B. cenocepacia FtsZ GTPase at 100µM?: Supplementary Table 1. The protocol: All the recombinant FtsZ proteins were expressed at 20°C overnight in E. coli BL21(DE3) cells, upon induction with 0.5 mM IPTG, and purified using the same protocol assessed for the wild-type B. cenocepacia FtsZ (Hogan et al., [2018]).
Burkholderia cenocepacia purified FtsZ protein, sequence (B4E5Y7 entry or part of it): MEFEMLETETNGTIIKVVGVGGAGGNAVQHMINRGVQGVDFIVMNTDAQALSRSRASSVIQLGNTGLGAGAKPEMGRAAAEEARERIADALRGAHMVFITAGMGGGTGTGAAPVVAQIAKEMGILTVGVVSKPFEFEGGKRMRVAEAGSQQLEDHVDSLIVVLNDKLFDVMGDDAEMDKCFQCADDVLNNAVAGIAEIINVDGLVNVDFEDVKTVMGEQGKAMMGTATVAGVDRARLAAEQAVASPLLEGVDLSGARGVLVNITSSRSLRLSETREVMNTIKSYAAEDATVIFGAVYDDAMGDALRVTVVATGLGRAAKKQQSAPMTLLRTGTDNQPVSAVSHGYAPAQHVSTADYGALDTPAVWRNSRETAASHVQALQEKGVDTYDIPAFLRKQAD
GTPase enzyme activity was determined using a pyruvate kinase/L-lactic dehydrogenase (PK/LDH) spectrophotometric coupled assay (Ingerman and Nunnari, [2005]). The assays were performed at 30°C, in a reaction mixture containing […] Hepes pH 7.5, 5 mM MgCl2, 5 mM KCl, 10 U PK/LDH, 0.25 mM NADH, 0.25 mM PEP, and 5–10 μM FtsZ, and initiated by the addition of 0.5 mM GTP. Alternatively, GTPase activity was determined by measuring the release of phosphate using the malachite green assay (Baykov et al., [1988]).
(1) A[I]=A[0]×(1-[I]/[I]+IC50)
where A[I] is the enzyme activity at inhibitor concentration [I] and A[0] is the enzyme activity without inhibitor.

Another data set concerns S. aureus ATCC 25923. The experiment in a line: MIC, 2-fold microdilution, resazurin method. The following applies: Staphylococcus aureus. In kind it is cell-based, Staphylococcus aureus. The protocol:
as §1, §2, §3

Another data set relates to B. cenocepacia FCF22. The data set is described as follows: MIC, 2-fold microdilution, resazurin method. The class given is cell-based, Burkholderia cenocepacia. To be noted: clinical isolate FCF22. The protocol: as §1, §2, §3
A further data set deals with B. cenocepacia FCF19. The experiment in a line: MIC, 2-fold microdilution, resazurin method. In kind it is cell-based, Burkholderia cenocepacia. To be noted: clinical isolate FCF19. The protocol:
as §1, §2, §3

Substrate in data set [2]: O=C(O)c1ccc([N+](=O)[O-])cc1
The experiment in a line: BcNR nitroreductase steady-state kinetics (NADPH decrease at 340 nm). The class given is biochemical, Burkholderia cenocepacia. To be noted: other: compound as substrate of BcNR; pH 8.0; 37.0 °C. The protocol: (§4) The reaction mixture typically contained 50 mM potassium phosphate pH 8.0, 50 mM KCl, 5–10 μM BcNR, and reactions were started by adding the substrate. Steady-state kinetics parameters were determined by assaying the enzyme at variable concentrations of substrate (10–500 μM). The experiments were performed in triplicate, and the kinetic constants Km and kcat determined by fitting the data to the Michaelis-Menten equation using Origin 8 software.

Substrate in data set [3]: COC(=O)CSc1ccc2nsnc2c1[N+](=O)[O-]
Described as above. In kind it is biochemical, Burkholderia cenocepacia. The following applies: other: compound as substrate of BcNR; pH 8.0; 37.0 °C. The protocol: as §4

Where [4] appears, read: PAO1, LB, 24 h, read-out: MIC P. aeruginosa PAO1.
Setting [5] is: PAO1, Supplementary Table 1, read-out: MIC (µg/ml) P. aeruginosa PAO1.
The mark [6] stands for this setting: ATCC25922, LB, 24 h, read-out: MIC E. coli 25922.
[7] abbreviates: ATCC25922, Supplementary Table 1, read-out: MIC (µg/ml) E. coli 25922.
Where [8] appears, read: J2315, LB, 48 h, read-out: MIC B. cenocepacia J2315.
[9] abbreviates: J2315, Supplementary Table 1, read-out: MIC (µg/ml) B. cenocepacia J2315.
Where [10] appears, read: ATCC25923, LB, 24 h, read-out: MIC S. aureus 25923.
Where [11] appears, read: ATCC25923, Supplementary Table 1, read-out: MIC (µg/ml) S. aureus 25923.

In turn, `CCOC(=O)CSc1c(C)cc2nsnc2c1[N+](=O)[O-]` [compound 11926142] returned a melting point of 181 to 183 °C. For the same molecule, in the data set on P. aeruginosa PAO1 (setting [4]), the MIC was > 256 µg/mL. Moreover, the MIC in the data set on P. aeruginosa PAO1 (setting [5]) was > 256 µg/mL. Moreover, the MIC in the data set on E. coli ATCC 25922 (setting [6]) is > 256 µg/mL. Also, in the data set on E. coli ATCC 25922 (setting [7]), the MIC was > 256 µg/mL. Also, the MIC in the data set with B. cenocepacia J2315 (setting [8]) was > 256 µg/mL. Besides, the MIC with B. cenocepacia J2315 (setting [9]) is > 256 µg/mL. Further, in data set [1], the IC50 worked out at 100 µM, the “Inhibition of Bc FtsZ At 100 μM” value was “Yes” and the “Inhibits B. cenocepacia FtsZ GTPase at 100µM?” value was “Yes”. Besides, the MIC with S. aureus ATCC 25923 (setting [10]) was 32 µg/mL (≈ 102 µM). Moreover, the MIC with S. aureus ATCC 25923 (setting [11]) was determined as 32 µg/mL (≈ 102 µM).

In turn, `COC(=O)C(C)Sc1ccc2nsnc2c1[N+](=O)[O-]` (stereo not drawn) [compound 11826363] came in with a melting point of 161 to 163 °C. The MIC with P. aeruginosa PAO1 (setting [4]) is 256 µg/mL (≈ 855 µM). Besides, the MIC with P. aeruginosa PAO1 (setting [5]) came to 256 µg/mL (≈ 855 µM). Further, the MIC in the data set with E. coli ATCC 25922 (setting [6]) is 16 µg/mL (≈ 53.5 µM). The MIC in the data set on E. coli ATCC 25922 (setting [7]) is 16 µg/mL (≈ 53.5 µM). Further, in the data set on B. cenocepacia J2315 (setting [8]), the MIC was 16 µg/mL (≈ 53.5 µM). The MIC with B. cenocepacia J2315 (setting [9]) came out at 16 µg/mL (≈ 53.5 µM). For the same molecule, in [1], the IC50 amounted to 30 µM, the “Inhibition of Bc FtsZ At 100 μM” value was “Yes” and the “Inhibits B. cenocepacia FtsZ GTPase at 100µM?” value is given as “Yes”. For the same molecule, the MIC in the data set on S. aureus ATCC 25923 (setting [10]) came to 64 µg/mL (≈ 214 µM). Also, the MIC in the data set with S. aureus ATCC 25923 (setting [11]) worked out at 64 µg/mL (≈ 214 µM).

`COC(=O)CSc1c(C)cc2nsnc2c1[N+](=O)[O-]` [compound 11926141]: the melting point lay in the range of 172 to 174 °C. Moreover, the MIC in the data set with P. aeruginosa PAO1 (setting [4]) is > 256 µg/mL. The MIC in the data set with P. aeruginosa PAO1 (setting [5]) was > 256 µg/mL. The MIC in the data set with E. coli ATCC 25922 (setting [6]) was > 256 µg/mL. Further, the MIC in the data set on E. coli ATCC 25922 (setting [7]) was > 256 µg/mL. Besides, the MIC in the data set with B. cenocepacia J2315 (setting [8]) is > 256 µg/mL. Also, the MIC in the data set on B. cenocepacia J2315 (setting [9]) was > 256 µg/mL. Also, in [1], the IC50 was 100 µM, the “Inhibition of Bc FtsZ At 100 μM” value is “Yes” and the “Inhibits B. cenocepacia FtsZ GTPase at 100µM?” value is “Yes”. In the data set with S. aureus ATCC 25923 (setting [10]), the MIC was 32 µg/mL (≈ 107 µM). Besides, in the data set with S. aureus ATCC 25923 (setting [11]), the MIC amounted to 32 µg/mL (≈ 107 µM).

For `O=[N+]([O-])c1c(N=C=S)ccc2nsnc12` [compound 10026149], the melting point was 185 to 187 °C. In the data set with P. aeruginosa PAO1 (PAO1, 24 h, Supplementary Table 1, read-out: MIC (µg/ml) P. aeruginosa PAO1), the MIC is 16 µg/mL (≈ 67.2 µM). Moreover, the MIC with P. aeruginosa PAO1 (setting [4]) turned out to be 16 µg/mL (≈ 67.2 µM). In the data set on E. coli ATCC 25922 (ATCC25922, 24 h, Supplementary Table 1, read-out: MIC (µg/ml) E. coli 25922), the MIC came out at 16 µg/mL (≈ 67.2 µM). For the same molecule, the MIC in the data set with E. coli ATCC 25922 (setting [6]) was 16 µg/mL (≈ 67.2 µM). Further, the MIC with B. cenocepacia J2315 (J2315, 48 h, read-out: MIC (µg/ml) B. cenocepacia J2315) was 32 µg/mL (≈ 134 µM). For the same molecule, the MIC in the data set on B. cenocepacia J2315 (J2315, 48 h, read-out: MIC B. cenocepacia J2315) was determined as 32 µg/mL (≈ 134 µM). For the same molecule, the MIC in the data set on B. cenocepacia FCF22 (Burkholderia cenocepacia) was 256 µg/mL (≈ 1070 µM). The “MIC B. cenocepacia FCF22” value against B. cenocepacia FCF22 is reported as “resistance”. In the data set on B. cenocepacia FCF19 (Burkholderia cenocepacia), the MIC came out at 64 µg/mL (≈ 269 µM). Also, the “MIC B. cenocepacia FCF19” value in the data set on B. cenocepacia FCF19 is on record as “resistance”. Moreover, in data set [1], the “Inhibition of Bc FtsZ At 100 μM” value is reported as “Yes” and the “Inhibits B. cenocepacia FtsZ GTPase at 100µM?” value is “Yes”. The concentration for half-maximal inhibition (IC50) in data set [1] (read-out: Inhibition of Bc FtsZ IC50, GTPase activity) stood at 20 µM. Besides, the MIC in the data set on S. aureus ATCC 25923 (ATCC25923, 24 h, Supplementary Table 1, read-out: MIC (µg/ml) S. aureus 25923) stood at 2 µg/mL (≈ 8.39 µM). Further, in the data set on S. aureus ATCC 25923 (setting [10]), the MIC stood at 2 µg/mL (≈ 8.39 µM).

B1: B. cenocepacia nitroreductase BCAL0539 (BcNR) (Burkholderia cenocepacia J2315) (protein)
chain: MSVPTASPRVDADAIRSVDTVDAALKSRRAIRAFLPTPVLRDTLEAILEAASRAPSGTNIQPWRVYVATGATRDALAAALTAAYDDPARDEKYVAEYDYYPREWVSPYIDRRRKVGWDLYGLLNIGRDEKARMHAQHARNFRFFDAPVALFFTLDRVMTLGAWLDCGMFLQGVMTAARARGLDTCPQAAFVPFHRIVAEHLDIPANEQLVCGMSLGHADPDAIENRLVTERASVAEFARFFA
For the molecule B1, in [2], the Km came to 200 ± 21 µM, the maximal velocity (Vmax) worked out at 7.6 µmol/min/mg, the kcat was 17.5 ± 1.4 s⁻¹ and the kcat/Km was 87500 ± 8100 M⁻¹ s⁻¹. For the same molecule, in [3], the Km is 80 ± 5 µM, the maximal velocity (Vmax) worked out at 71.9 µmol/min/mg, the kcat is 165 ± 5.9 s⁻¹ and the kcat/Km is 2.064e+06 ± 20100 M⁻¹ s⁻¹.
